Laboratory results from patent US20080089874A1, “DIRECTED DIFFERENTIATION AND MATURATION OF STEM CELL-DERIVED CARDIOMYOCYTES” (The Regents of the University of California, priority 2006, published 2008).
Entries after “also recorded” stand apart in the source; their conditions may differ.

Legend:
ACMs = type: cell-based, guinea pig
adult guinea pig LVCMs = type: cell-based

For ZD7288, the RMP (ACMs) was −47.6±1.2 mV, the “effect of If suppression on firing” value (ACMs) was “triggered rhythmic firing; also recorded: generated AP” and the APD50 (adult guinea pig LVCMs) was 272 ± 31 ms. The “effect of ZD7288 on induced If and AP firing” value (adult guinea pig LVCMs) was “blocked; also recorded: silenced” and the “sensitivity of Ad-CGI-HCN1-induced If to HCN blocker” value (adult guinea pig LVCMs) was “sensitive”.

In the case of `NC1=N[C@H](O)[C@H]2[C@H]3O[C@]4(O)O[C@@H]([C@@H](O)[C@@]2(N1)[C@@H]4O)[C@]3(O)CO` [TTX, tetrodotoxin], the AP overshoot (adult guinea pig LVCMs) is reported as “disappeared”, the “change in phase 4 slope and MDP” value (adult guinea pig LVCMs) is reported as “no statistical difference” and the cycle length (adult guinea pig LVCMs) is reported as 328 ± 23 ms. For the same compound, the “maximal upstroke velocity of AP” value (adult guinea pig LVCMs) was 5.3±0.6 V/s and the “shift in TOP” value (adult guinea pig LVCMs) was 17 mV.

Compound `CC(C)NCC(O)c1ccc(O)c(O)c1` (centres unmarked) [isoproterenol] has an MDP (adult guinea pig LVCMs) of −55.5±0.7 mV, a TOP (adult guinea pig LVCMs) of −45.2±0.4 mV and a cycle length (adult guinea pig LVCMs) of 182 ± 4.1 ms. For the same compound, the “increase in firing rate” value (adult guinea pig LVCMs) was 27%, the “midpoint (V1/2) of steady-state activation” value (adult guinea pig LVCMs) was −56.9±1.6 mV and the “phase 4 slope” value (adult guinea pig LVCMs) was 350±12 mV/s.

`CC(=O)OCC[N+](C)(C)C` [acetylcholine] was tested, and the MDP (adult guinea pig LVCMs) was −59.0±1.0 mV, the cycle length (adult guinea pig LVCMs) was 293 ± 16 ms and the “effect on spontaneous APs” value (adult guinea pig LVCMs) was “no effect”. The “phase 4 slope” value (adult guinea pig LVCMs) was 241±16 mV/s.
